Results reported in patent US20240018119A1, “CARBOXAMIDE DERIVATIVE AND PHARMACEUTICAL COMPOSITION COMPRISING SAME AS ACTIVE INGREDIENT FOR PREVENTING OR TREATING MENTAL ILLNESS” (DAEGU-GYEONGBUK MEDICAL INNOVATION FOUNDATION, priority 2020, published 2024).
Like-named read-outs stand apart in the source and are kept apart here.

How the values were obtained:
[1] = molecular target: T1, norepinephrine transporter (Homo sapiens, UniProt P23975); test: Norepinephrine reuptake inhibition in transporter-transfected HEK-293 cells ([3H]-NE); format: cell-based; details: for Triple reuptake inhibition (Ratio %) NET: compound 1 μM, [3H]-NE, relative to control without compound (100%), lower = more inhibition
T1 construct: expressed in transfected cells; host or cells: HEK-293

[2] = molecular target: T2, dopamine transporter (Homo sapiens, UniProt Q01959); test: Dopamine reuptake inhibition in transporter-transfected HEK-293 cells ([3H]-DA); format: cell-based; details: for Triple reuptake inhibition (Ratio %) DAT: compound 1 μM, 20-30 nM [3H]-DA, relative to control without compound (100%), lower = more inhibition
T2 construct: expressed in transfected cells; host or cells: HEK-293
Outline: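 HEK-293 cells transfected with human DAT cDNA; compound preincubated 15 min at 37 °C in uptake buffer, then buffer containing 20-30 nM [3H]-DA added for 5 min at 37 °C. After ice-cold washes and SDS lysis, radioactivity expressed as % of untreated control; IC50 from six concentrations (1 nM–1 μM).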

[3] = system: male ICR mice; test: Evaluation on causing sleep disorder, pentobarbital sodium-induced sleep in mice; format: in vivo; details: then pentobarbital sodium 42 mg/kg i.p.; for sleep onset time: vehicle about 225 seconds; for sleep duration: vehicle about 2100 seconds
Description: In order to evaluate the causing of sleep disorder or not as the side effect of the compound of Example 35, Example 66 according to the present invention or Comparative Example 1, an experiment was performed as follows, and the results are shown in FIG. 2. Pentobarbital sodium is a drug inducing sleep, and by observing the behavior of sleep-induced animals using the drug, the causing of sleep disorder or not can be evaluated. In addition, caffeine is well-known as a drug causing sleep disorder, and diazepam is well-known as a sleeping pill having sleep retention effect.
As experimental animals, male ICR mice of 3 weeks old were prepared and, 8 mice per group were prepared. A vehicle taking only water, groups intraperitoneally administered once a day for 5 days with 10 mg/kg of caffeine, 2 mg/kg of diazepam, 10 mg/kg of Comparative Example 1, and 10 mg/kg of Example 35 and 10 mg/kg of Example 66, were prepared. […], 42 mg/kg of pentobarbital sodium was intraperitoneally administered to the mice of each group to Induce sleep.
After treatment with pentobarbital sodium, if a mouse was turned upside down showing Its belly, it was considered sleep, and if a mouse changed posture while showing its back, it was considered to wake up completely. Sleep onset time and sleep duration were confirmed.

[4] = system: male ICR mice; test: Hyperactivity inhibitory effect, open field test (EthoVision) in MK801-treated mice; format: in vivo; details: for distance moved: vehicle about 7000 cm; for movement duration: vehicle about 880 s
Description: In order to evaluate the hyperactivity inhibitory effect of the compounds of Example 35 and Example 66 according to the present invention or Comparative Example 1, an experiment was performed as follows, and the results are shown in FIG. 1. An open field test is an experimental method utilized for searching for excess and decline in motor function, calmness, excitement, avoidance degree and toxicity.
The observation of the hyperactivity and behavior analysis of animals were conducted using an EthoVisiorn System (Noldus IT b.v., Netherlands) that is a type of an open field test. The animals used for the experiment were male ICR mice of 4 weeks old. To induce hyperactivity, animal models intraperitoneally administered with 0.15 mg/kg of MK801 (drug name: dizocilpine) were used, and the compounds of Example 35, example 66 or Comparative Example 1 was intraperitoneally administered by 5 mg/kg, 30 minutes ago the administration of MK801. Male ICP mice administered with 10% DMSO and 10% Tween-80 as the solvents dissolving a drug were considered a vehicle, and male ICR mice administered with MK801 […] with the Example Compound or Comparative Compound were considered a positive control. After that, in the center of a test box (40×40×30 cm) manufactured using black acryl, the mice under test were put and allowed to fit for 15 minutes, and behavior patterns were observed, recorded and analyzed for 15 minutes. Comparative analysis was conducted by measuring distance moved and movement duration.

[5] = molecular target: T3, serotonin transporter (Homo sapiens, UniProt P31645); test: Serotonin reuptake inhibition in transporter-transfected HEK-293 cells ([3H]-5-HT); format: cell-based; details: for Triple reuptake inhibition (Ratio %) SERT: compound 1 μM, [3H]-5-HT, relative to control without compound (100%), lower = more inhibition
T3 construct: expressed in transfected cells; host or cells: HEK-293

[6] = concentration at which Ratio % is 50%, 6 concentrations 1 nM to 1 μM, read-out: Triple reuptake inhibition (IC50, μM) NET
[7] = concentration at which Ratio % is 50%, 6 concentrations 1 nM to 1 μM, read-out: Triple reuptake inhibition (IC50, μM) DAT
[8] = 10 mg/kg intraperitoneally once a day for 5 days
[9] = 5 mg/kg intraperitoneally 30 minutes before MK801 0.15 mg/kg i.p.
[10] = 5 mg/kg intraperitoneally 30 minutes before MK801 0.15 mg/kg i.p., observed 15 minutes, MK801 only about 14000 cm
[11] = 5 mg/kg intraperitoneally 30 minutes before MK801 0.15 mg/kg i.p., MK801 only about 1070 s
[12] = concentration at which Ratio % is 50%, 6 concentrations 1 nM to 1 μM, read-out: Triple reuptake inhibition (IC50, μM) SERT
[13] = positive control treated with only MK801 0.15 mg/kg i.p.
[14] = 2 mg/kg intraperitoneally once a day for 5 days

T1 sequence (P23975 whole entry, species assumed): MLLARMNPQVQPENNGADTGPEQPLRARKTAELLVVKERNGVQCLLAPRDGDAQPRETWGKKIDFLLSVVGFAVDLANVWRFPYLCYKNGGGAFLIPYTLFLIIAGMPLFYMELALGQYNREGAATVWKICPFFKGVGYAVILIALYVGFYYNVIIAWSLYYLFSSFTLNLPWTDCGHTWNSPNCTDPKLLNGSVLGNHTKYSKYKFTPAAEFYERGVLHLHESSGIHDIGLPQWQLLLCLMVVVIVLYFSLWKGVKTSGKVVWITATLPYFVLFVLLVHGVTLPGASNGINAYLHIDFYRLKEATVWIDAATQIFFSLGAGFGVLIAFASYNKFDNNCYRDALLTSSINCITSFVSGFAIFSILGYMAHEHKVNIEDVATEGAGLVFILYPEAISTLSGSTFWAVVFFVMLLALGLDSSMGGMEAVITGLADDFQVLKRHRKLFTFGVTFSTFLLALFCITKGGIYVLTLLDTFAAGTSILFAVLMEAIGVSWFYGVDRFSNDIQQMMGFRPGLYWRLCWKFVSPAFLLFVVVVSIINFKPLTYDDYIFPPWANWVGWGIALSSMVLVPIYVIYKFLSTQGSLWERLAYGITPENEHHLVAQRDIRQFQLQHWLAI
T3 sequence (P31645 whole entry): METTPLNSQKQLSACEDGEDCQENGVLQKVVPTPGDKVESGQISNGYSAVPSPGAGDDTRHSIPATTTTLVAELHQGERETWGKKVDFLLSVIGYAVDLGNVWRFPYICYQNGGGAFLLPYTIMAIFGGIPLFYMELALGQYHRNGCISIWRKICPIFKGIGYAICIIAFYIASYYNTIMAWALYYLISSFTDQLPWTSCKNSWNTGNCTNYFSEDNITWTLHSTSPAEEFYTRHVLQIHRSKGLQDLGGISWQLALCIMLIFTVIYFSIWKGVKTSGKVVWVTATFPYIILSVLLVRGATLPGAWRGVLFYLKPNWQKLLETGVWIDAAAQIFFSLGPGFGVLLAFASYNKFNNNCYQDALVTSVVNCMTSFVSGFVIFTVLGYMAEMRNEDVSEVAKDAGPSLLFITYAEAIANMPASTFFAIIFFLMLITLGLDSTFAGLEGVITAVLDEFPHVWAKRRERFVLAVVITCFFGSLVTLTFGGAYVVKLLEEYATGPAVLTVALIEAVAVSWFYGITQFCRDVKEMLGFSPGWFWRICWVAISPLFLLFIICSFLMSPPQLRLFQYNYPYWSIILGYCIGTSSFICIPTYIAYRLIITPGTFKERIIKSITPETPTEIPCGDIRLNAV
T2 sequence (Q01959 whole entry): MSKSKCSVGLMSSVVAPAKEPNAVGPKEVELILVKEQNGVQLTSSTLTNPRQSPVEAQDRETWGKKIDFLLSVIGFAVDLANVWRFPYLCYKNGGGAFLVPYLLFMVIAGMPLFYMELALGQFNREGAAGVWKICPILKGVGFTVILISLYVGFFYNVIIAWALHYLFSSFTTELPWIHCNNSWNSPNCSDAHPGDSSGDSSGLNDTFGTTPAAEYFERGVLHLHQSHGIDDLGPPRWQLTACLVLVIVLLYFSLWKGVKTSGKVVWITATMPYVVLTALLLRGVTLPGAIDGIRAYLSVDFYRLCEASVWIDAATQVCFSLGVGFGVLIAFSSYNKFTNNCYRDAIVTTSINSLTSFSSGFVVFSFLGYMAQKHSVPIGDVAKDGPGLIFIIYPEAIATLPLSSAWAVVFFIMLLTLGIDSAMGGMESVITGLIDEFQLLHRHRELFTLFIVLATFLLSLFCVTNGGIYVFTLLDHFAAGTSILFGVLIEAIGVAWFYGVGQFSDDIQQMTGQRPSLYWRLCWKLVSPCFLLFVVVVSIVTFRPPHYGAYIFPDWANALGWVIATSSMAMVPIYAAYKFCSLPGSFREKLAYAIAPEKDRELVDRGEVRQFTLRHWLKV

Structure (SMILES) | IC50 [1, 6] [µM] | IC50 [2, 7] [µM] | IC50 [5, 12] [µM] | Triple reuptake inhibition (Ratio %) NET [1] [%] | Triple reuptake inhibition (Ratio %) DAT [2] [%] | Triple reuptake inhibition (Ratio %) SERT [5] [%] | also measured
O=C(NCCN1CCC(Cc2ccccc2)CC1)c1cc2ccccc2[nH]1 [Comparative Example 1, N-(2-(4-benzylpiperidin-1-yl)ethyl)-1H-indol-2-carboxamide, reference compound] | 0.524 | 4.18 | 5.35 |  |  |  | sleep disorder as side effect [3, 8]: induced sleep disorder; sleep onset time [3, 8]: about 300 seconds; sleep duration [3, 8]: about 1100 seconds; hyperactivity of the mice induced with MK801 [4, 9]: not inhibited; distance moved [4, 10]: about 13400 cm; movement duration [4, 11]: about 1100 seconds
COc1cc2cc(C(=O)NCCN3CCC(Cc4ccccc4)CC3)[nH]c2cc1OC [Example 35, N-(2-(4-benzylpiperidin-1-yl)ethyl)-5,6-dimethoxy-1H-indol-2-carboxamide] | 0.386 | 0.248 | 0.415 | 16.10 | 7.77 | 36.24 | hyperactivity of the mice induced with MK801 [4, 9]: significantly inhibited; distance moved [4, 10]: about 10000 cm; movement duration [4, 11]: about 950 seconds
O=C(NCCN1CCC(Cc2ccccc2)CC1)c1cc2cc(O)ccc2[nH]1 [Example 66, N-(2-(4-benzylpiperidin-1-yl)ethyl)-5-hydroxy-1H-Indol-2-carboxamide] | 0.167 | 0.036 | 0.265 | 21.59 | 8.78 | 38.79 | hyperactivity of the mice induced with MK801 [4, 9]: significantly inhibited; distance moved [4, 10]: about 8600 cm; movement duration [4, 11]: about 880 seconds
CCCCOc1ccc(C(=O)NCCN2CCC(c3c[nH]c4ccccc34)CC2)cc1 [Example 72, N-(2-(4-(1H-indol-3-yl)piperidin-1-yl)ethyl)-4-butoxybenzamide] |  |  |  | 97.62 | 58.16 | 17.44 | 
O=C(NCCN1CCC(Cc2ccccc2)CC1)c1c[nH]c2ccccc12 [Example 73, N-(2-(4-benzylpiperidin-1-yl)ethyl)-1H-indol-3-carboxamide] |  |  |  | 57.01 | 33.58 | 88.39 | 
Cn1c(C(=O)NCCN2CCC(Cc3ccccc3)CC2)cc2ccccc21 [Example 74, N-(2-(4-benzylpiperidin-1-yl)ethyl)-1-methyl-1H-indol-2-carboxamide] | 0.337 | 0.509 | 3.41 | 28.47 | 39.87 | 67.26 | 
O=C(NCCN1CCC(Cc2ccccc2)CC1)c1ccc[nH]1 [Example 75, N-(2-(4-benzylpiperidin-1-yl)ethyl)-1H-pyrrol-2-carboxamide] |  |  |  | 67.08 | 83.55 | 98.97 | 
O=C(CCN1CCC(Cc2ccccc2)CC1)Nc1cc2ccccc2[nH]1 [Example 76, 3-(4-benzylpiperidin-1-yl)-N-(1H-indol-2-yl)propanamide] |  |  |  | 32.60 | 36.87 | 68.60 | IC50 [1]: 0.496 µM; IC50 [2]: 0.278 µM; IC50 [5]: 0.811 µM
O=C(CCC(=O)N1CCC(Cc2ccccc2)CC1)Nc1cc2ccccc2[nH]1 [Example 77, 4-(4-benzylpiperidin-1-yl)-N-(1H-indol-2-yl)-4-oxobutanamide] |  |  |  | 91.05 | 111.32 | 98.61 | 
O=C(O)c1ccc2[nH]c(C(=O)NCCN3CCC(Cc4ccccc4)CC3)cc2c1 [Example 81, 2-((2-(4-benzylpiperidin-1-yl)-ethyl)carbamoyl)-1H-indol-5-carboxylic acid] |  |  |  | 95.95 | 70.22 | 87.86 | 
NC(=O)c1ccc2[nH]c(C(=O)NCCN3CCC(Cc4ccccc4)CC3)cc2c1 [Example 82, N2-(2-(4-benzylpiperidin-1-yl)ethyl)-1H-indol-2,5-dicarboxamide] |  |  |  | 37.73 | 47.70 | 41.20 | 
C[C@]12N[C@H](Cc3ccccc31)c1ccccc12 [MK801, reference compound] |  |  |  |  |  |  | movement duration [4, 13]: about 1070 seconds; distance moved [4, 13]: about 14000 cm
CN1C(=O)CN=C(c2ccccc2)c2cc(Cl)ccc21 [diazepam] |  |  |  |  |  |  | sleep onset time [3, 14]: about 170 seconds; sleep duration [3, 14]: about 2900 seconds
